Laboratory results as given in patent publication US20260285924A1, “PEPTIDE THERAPEUTICS” (priority 2023, published 2026).

How the values were obtained:
Format in all cases: cell-based, human
A375-NRAS^Q61K = assay: Pan-Cancer PepTile fitness screen (lentiviral 40-mer peptide library, NGS abundance); details: peptide enrichment day 14 vs day 0
Protocol: (§1) A peptide tilling screen was performed in A375 similarly to a screen done in MDA-MB-231 (FIG. 1) but with a different lentiviral library. The library (Pan-Cancer library) is composed of 1020 genes tiled every 6 amino acids into 40-mer amino acid long peptides. The gene selection was based on their implication in oncogenesis either being as oncogenes or tumor suppressors. The list was built using recent literature that identified new cancer drivers as well as databases such as Uniprot keywords (KW-0656: Proto-oncogene, KW-0043: Tumor suppressor), and Gene Ontology terms (GO1900117: Apoptosis, GO1901979: Cell cycle checkpoint) (FIG. 2). Aside from Human genes, a list of viral genes was also included (KW-1121: Modulation of host cell cycle by virus) that play roles in high jacking cell cycle progression and thus in oncogenesis (FIG. 2).
(§2) The model of study is melanoma, and this disease is stratified into 4 molecular subtypes, BRAF mutants, NRAS mutants, KIT amplification, NF1 mutations (FIG. 3A). The most prominent mutations found in patient affected with metastatic melanomas are BRAF^V600E and NRAS^Q61K (FIG. 3B). RAS play a key role in oncogenesis and resistance to treatments. Indeed, RAS activating mutations is found in ~20% of all human cancers and secondary NRAS mutation leads to acquired resistance to BRAF targeted therapy such as vemurafenib. Thus, the screen was performed in an A375 cell line model which derived from human BRAF^V600E melanoma as well as an engineered A375 transduced with HA-NRAS^Q61K (FIG. 4A, B). Both cell lines grow at a similar rate but the A375-NRAS^Q61K display more than 10-fold resistance to vemurafenib treatment compared to parental A375 (FIG. 4C, D).
(§3) These cells were transduced with the Pan-Cancer library at a low multiplicity of infection (MOI=0.1-0.3). Then, genomic DNA was extracted at day 0 and day 14 post-transduction to quantify the abundance of peptide for each temporal conditions using Next-generation sequencing. Each experimental replicates were deep sequenced with at least 150 million reads and show a coverage between 82-90% of the initial Pan-Cancer Peptide library (FIG. 5). Then, for each individual peptides a cellular fitness score was calculated based on their enrichment between day 0 and day 14. 8090 peptides negatively affecting growth of A375-WT were identified and 8153 peptides for the A375-NRAS^Q61K cell line (FIG. 6). […] Those common hits are found to be tiles from ~100 genes of the Pan-Cancer gene list and show a substantial biological function clustering.

A375-WT = assay: Pan-Cancer PepTile/PiTile fitness screen (lentiviral 40-mer peptide library, NGS abundance); parameters: key: enrichment of each peptide's NGS abundance, early day vs Day 14; details: Pan-Cancer library, peptide enrichment day 14 vs day 0
From the text: FIGS. 13A-13D show Pan-Cancer PiTile Workflow. (A) The Pan-Cancer peptide library is composed of 1081 proteins tiled into 40-mer peptides at every 6 amino acids of the parental protein. The DNA-encoded library is cloned into lentiviral vectors and packaged into lentivirus. (B) A375 cell line was transduced with the Pan-Cancer PiTile library. Genomic DNA was then harvested at Day2 and Day 14 post-transduction and cell populations abundance expressing the different peptides were quantified using Next-Generation Sequencing (NGS). Peptide fitness score was then calculated by the abundance of each peptide at Day2 versus Day 14. Then the fitness signal is mapped over the original amino acid positions of the derived protein. (C) Coverage of the plasmid Pan-Cancer library and peptide-amplicons from Day2 and Day 14 replicated was determined by NGS. (D) Dot plot of the experimental result obtain from screening the Pan-Cancer library in A375 cell line.
as §1, §2, §3
We built a DNA-encoded peptide library composed of all known Human oncogenes and Tumor Suppressors that we fragmented in 40 amino acid long peptides, the Pan-Cancer library. Using lentiviral expression system, we transduced the Pan-Cancer library in A375 cell line. After 14 days of growth, the frequency of each peptide is measured by NGS and this reveal which peptides affect cell fitness. […]

[1] = system: A-to-I RNA editing reporter (ADAR) in A375; assay: A-to-I PepTile (REPTILE) screen: A-to-I editing of dsRNA hairpin reporter by NGS; details: for % A-to-I editing (IFNα): IFNα 6000 U/ml for 48 hours; for % A-to-I editing (Basal): no treatment
From the text: (§4) FIGS. 12A-12D. A-to-I PepTile screen. (A) Composition of A-to-I PepTile linrary screen, and schematic description of the lentiviral expression vector. (B) Experimental workflow. A375 cells were transduced at low MOI, and then treated or not with IFNα for 48 hrs. RNA was extracted and Peptide_ADARreporter RNA species were amplified and sequenced by NGS. (C) Dot plot of A-to-I PepTile library effect on A-to-I editing with or without IFNα treatment. Red line is the mean A-to-I editing of all the 8088 peptides (>100 read counts) no treatment: 25.75% IFNα: 37.6%. (D) Dot plot of A-to-I PepTile library fitness effect upon IFNα for 48 hrs.
FIGS. 17A-17F show A-to-I RNA Editing PiTile (REPTILE) screen in A375. (A) A-to-I RNA Editing PiTile (REPTILE) library design consist of fragmentation of all known ADAR1, ADAR2 interactors and all human double stranded RNA-binding protein into 40 amino acid long peptide. This library was then cloned into a lentivirus vector that also encode a DNA-encoded RNA loop reporter (A-to-I Rep) that is edited by ADAR proteins in cells at the RNA level. When the construct is expressed, the RNA loop gets edited on a single Adenosine, while the 40-mer peptide get expressed at the protein level. Then we can measure the impact of the peptide expression on the editing rate of the RNA loop reporter by sequencing (NGS and Sanger). (B) Experimental workflow of REPTILE screen in A375 cell line. Cells were transduced with the REPTILE library, and then treated for 48 hours with IFNα. Following the treatment, RNA was harvested, converted into cDNA and amplicon library containing peptide Identity (barcode) linked to the RNA loop reporter were prepared for NGS. (C) Result of the A375 REPTILE screen in the no treatment condition. Each dot represents a unique peptide that is associated with an A-to-I editing rate that was measured on the RNA loop. (D) Result of the A375 REPTILE screen in the IFNα condition. Each dot represents a unique peptide that is associated with an A-to-I editing rate that was measured on the RNA loop. Red line represent the A-to-I editing mean, Dash blue line represent 2 times the standard deviation of the % A-to-I editing across all the datasets. This cutoff was used to defined peptides hits that modulate RNA A-to-I editing. (E) Peptide A-to-I Inhibitor Hits intersection between no treatment (% A-to-I editing<15%) and IFNα (% A-to-I editing<27%) conditions. (F) Peptide A-to-I Enhancers Hits intersection between no treatment (% A-to-I editing>36%) and IFNα (% A-to-I editing>47%) conditions.
Provided herein is a screening methodology to measure the effect of small peptide on A-to-I RNA editing in situ and screen thousands of peptides in a single experiment. First, a library of peptides with the potential of impairing A-to-I editing was designed and built. ADAR enzymes edit RNA only on double-stranded RNA structures and via ADAR's double stranded RNA-Binding Domain (dsRBD). […] The A-to-I PepTile library is composed of 19 Human proteins having dsRBD and 34 known protein-protein interactors of ADAR1/2. All these proteins were tiled into 40-mer peptides every 4 amino acids (FIG. 12A). To measure A-to-I editing, a biosensor consisting of a 71 bp dsRNA hairpin structure that gets A-to-I edited at a rate of 25% in A375 melanoma cells, and ~37% upon IFNα treatment was used. This A-to-I editing reporter is fused with DNA sequence encoding for a peptide from the A-to-I PepTile library. The A-to-I PepTile plasmid pool (10304 elements) was used to produced lentiviruses and transduced A375 cells at a low multiplicity of infection (MOI) (FIG. 12B). A part of the infected cells was treated with IFNα at 6000 U/ml for 48 hours, and then bulk RNA of the basal and treated condition was harvested. RNA was then retrotranscribed into cDNA and sequenced by Next-Generation Sequencing (NGS). […]

A375 cells = assay: A-to-I PepTile screen: fitness effect upon IFNα (PepTile abundance untreated vs treated)
From the text: as §4
Provided herein is a screening methodology to measure the effect of small peptide on A-to-I RNA editing in situ and screen thousands of peptides in a single experiment. First, a library of peptides with the potential of impairing A-to-I editing was designed and built. ADAR enzymes edit RNA only on double-stranded RNA structures and via ADAR's double stranded RNA-Binding Domain (dsRBD). […] The A-to-I PepTile library is composed of 19 Human proteins having dsRBD and 34 known protein-protein interactors of ADAR1/2. All these proteins were tiled into 40-mer peptides every 4 amino acids (FIG. 12A). To measure A-to-I editing, a biosensor consisting of a 71 bp dsRNA hairpin structure that gets A-to-I edited at a rate of 25% in A375 melanoma cells, and ~37% upon IFNα treatment was used. This A-to-I editing reporter is fused with DNA sequence encoding for a peptide from the A-to-I PepTile library. The A-to-I PepTile plasmid pool (10304 elements) was used to produced lentiviruses and transduced A375 cells at a low multiplicity of infection (MOI) (FIG. 12B). A part of the infected cells was treated with IFNα at 6000 U/ml for 48 hours, and then bulk RNA of the basal and treated condition was harvested. RNA was then retrotranscribed into cDNA and sequenced by Next-Generation Sequencing (NGS). With the sequencing data, the A-to-I editing percentage of the RNA reporter for each PepTile is calculated since both elements are encoded on the same transcript. Moreover, with this screen one can also measure the abundance of the PepTiles between the untreated and treated conditions and determine Fitness score associated to every PepTile. To ensure a robust and more accurate A-to-I editing % estimation a cut-off of 100 read counts was set for each PepTile. […] SEQ ID NOs: 2125-2147 are A-to-I peptide inhibitors and SEQ ID NOs: 2148-2210 are A-to-I activators. In addition, 117 PepTiles were identified that either synergize (SEQ ID NOs: 2211-2243) or protect (SEQ ID NOs: 2244-2327) to IFNα-induced cell death (FIG. 12D and Table 5). These PepTiles are potential new therapeutic agents that can modulate the Interferon pathway. They may be beneficial in treating inflammatory conditions and may also enhance the effectiveness of cancer immunotherapy through synergistic effects.

[2] = A375, PepTile abundance upon IFNα treatment, negative = synthetic lethal, positive = protector
[3] = IFNα 6000 U/ml for 48 hours vs untreated

Substance | A375-NRAS Fitness Score (A375-NRAS^Q61K) | A375-WT Fitness Score (A375-WT) | % A-to-I editing (IFNα) [1] [%] | % A-to-I editing (Basal) [1] [%] | Fitness Score IFNα (A375 cells; [2]) | Fitness Score IFNα (A375 cells; [3])
ARID2_13: 40-mer peptide tile of ARID2, AA start position 72, ARID domain (IVEEFNFPRSCSNAAFALKQYYLRYLEKYEKVHHFGEDDD; UniProt Q68CP9 72-111, looked up, fragment) | 0.85 | −2.41 |  |  |  | 
MSILARLDMQRGVHGRLMDNSTSVREAAVELLGRFVLCRPQ [NIPBL_452] |  |  | 50.76 | 38.35 | 2.31 | 2.31
MSKVTRAQIEDTLRRDHQLREAPDTAEKAKSHLEVPLEENV [CCDC124_24] |  |  | 13.63 | 12.50 |  | -1.31
MSLLTGLSDSQVRAFRHTSTLAAMKLMTALVNVALNLSIHQ [STAG1_52] |  |  | 58.66 | 46.34 |  | -0.26
MSQHRKKEADSVYGEWVPVEKNGEENKDDDNVFSSNLPSEP [SON_53] |  |  | 25.27 | 14.38 |  | 1.03
MSQVRAFRHTSTLAAMKLMTALVNVALNLSIHQDNTQRQYE [STAG1_54] |  |  | 54.81 | 43.52 |  | 0.28
MVEKAVSSAAGPLGPGDAVRRVLECVATGTLLTDGPGLQDP [ZFR2_205] |  |  | 54.50 | 45.00 |  | 0.12
MVGEYSNLEVNASWTKERWNQEFTKHQVLIMTCYVALNVLK [DICER1_31] |  |  | 48.57 | 37.36 |  | 0.94
MVISTFKKRAVEITGAGPGASSVCNSAPGSGPSSPNSSHST [HDAC5_73] |  |  | 63.84 | 49.71 |  | 0.74
MVMNLLESAGFSRSNPYYIVKQGKINQMATAPDSQRLKLLR [SMC3_31] |  |  | 54.66 | 41.67 |  | 1.72
MVSSAAGPLGPGDAVRRVLECVATGTLLTDGPGLQDPCERD [ZFR2_206] |  |  | 55.48 | 44.05 |  | 0.81
MVVLLCRQPCASQSSLKDINWDSSQWQPLIQDRCFLSWLVK [UPF1_52] |  |  | 47.63 | 50.56 |  | -0.80
MVYQAPLSLATVPHQALGRTQSSPAAPGGMKSPPDQPVKHL [HDAC5_161] |  |  | 48.17 | 43.88 |  | -0.12
MWDSIIQQATKNVDILKDPETVKQLGSILKTNVRACKAVGH [XPO1_167] |  |  | 25.96 | 11.93 |  | 1.42
MYSGYEAAVYSAASSYYQQQQQQQKQAAAAAAAAAATAAWT [ZFR_67] |  |  | 47.21 | 41.43 | 2.43 | 2.43
